What was measured:
urinary bladder strips [1] = assay: Static tension and acetylcholine-induced contraction of rat urinary bladder strips (isometric transducer)
Method: Urinary bladder strips were prepared in a manner similar to that of Example 1. The urinary bladder sections were attached to an isometric transducer FD pickup TB611T (manufactured by Nippon Kohden Corporation) in Tyrode's solution. Contraction of the urinary bladder was continuously measured. Firstly, 30 nM to 1 mM acetylcholine was added to the Tyrode's solution. […] In FIG. 3, the vertical axis indicates tension (unit: g), while the horizontal axis indicates time. Contraction induced by acetylcholine was confirmed, followed by washing out acetylcholine. Thereafter, 100 nM adrenomedullin was added to the Tyrode's solution. […] Further, 30 nM to 1 mM acetylcholine was added to the Tyrode's solution. As a result, recontraction of the urinary bladder occured.

urinary bladder strips [2] = assay: Extension of rat urinary bladder strips under 1 g tension (isotonic transducer); settings: 100 nM adrenomedullin in Tyrode's solution, tension 1 g, male rat bladder strips, repeated five times, FIG. 2
Source text: 8 to 16 weeks old male rats were sacrificed by hammering their heads. Thereafter, the rats were decapitated, followed by exsanguination. The urinary bladders were isolated from the rats. Each isolated urinary bladder was cut into four portions, thereby obtaining urinary bladder strips (FIG. 1).
The effect of adrenomedullin on the rat urinary bladder was examined by measuring contractions of the urinary bladder strips using an isotonic transducer TD-112S (manufactured Nippon Kohden Corporation) where the tension was 1 g.
The urinary bladder strips were firstly immersed in 30 ml of Tyrode's solution with 100 nM adrenomedullin (experimental sample) or without it (control sample). In this situation, the sections were attached to the […] transducer where the tension was 1 g, to continuously measure relaxation of the urinary bladder. The composition of the Tyrode's solution is as follows: 139 mM NaCl, 2.7 mM KCl, 11.9 mM NaHCO3, 2.6 mM MgCl2.6H2O, 0.4 mM NaH2PO4.2H2O, 1.7 mM CaCl2, and 5.5 mM glucose; pH 7.4).
The above-described experiment was repeated five times. Solid colored circles indicate the results of the experimental sample, while plain circles indicate averages of the control sample. Vertical bars indicate the standard deviation of a two-way analysis of variance. The vertical axis indicates the length of relaxation (mm), while the horizontal axis indicate time (minutes).

urinary bladder = settings: Nishimura et al., British J. Pharmacology, 120, 193-200 (1997), FIG. 6; cited from earlier work
mesenteric artery = settings: Nakamura et al., Jpn. J. Pharmacol. 67, 259-262 (1995), FIG. 1; cited from earlier work

Substance: adrenomedullin: synthesized peptide consisting of an amino acid sequence from Tyr in position 1 to Tyr in position 50 of SEQ ID NO: 6 (rat-derived)
- contraction (static tension) of the urinary bladder after addition of adrenomedullin alone (urinary bladder strips [1]; 100 nM adrenomedullin in Tyrode's solution, after washing out acetylcholine, FIG. 3): not contracted
- contraction induced by acetylcholine in the presence of adrenomedullin versus acetylcholine alone (urinary bladder strips [1]; 100 nM adrenomedullin, 30 nM to 1 mM acetylcholine): not significantly different
- extension (length of relaxation) of the urinary bladder wall versus absence of adrenomedullin (urinary bladder strips [2]): more extended
- contraction or extension (active extension) of the urinary bladder on addition of adrenomedullin (urinary bladder): does not cause contraction or extension
- extension of contracted mesenteric artery by addition of adrenomedullin (mesenteric artery): extended by addition of adrenomedullin in a concentration-dependent manner
